“And” between values parts separate entries of the source, which are not always exact repeats. Equal values may be shown once. Read-outs that look alike come from different tables or passages of the source.
Tests used:
Format in all cases: biochemical
meprin α = target: T1, meprin α (Homo sapiens, UniProt Q16819); assay: Meprin α assay in a 384-well plate (fluorogenic substrate Mca-YVADAPK-K(Dnp))
T1 construct: Strep-tag; made in house; host or cells: BTI-TN-5B1-4 insect cells (baculovirus, amplified in Sf9)
T1 sequence (Q16819 66-746): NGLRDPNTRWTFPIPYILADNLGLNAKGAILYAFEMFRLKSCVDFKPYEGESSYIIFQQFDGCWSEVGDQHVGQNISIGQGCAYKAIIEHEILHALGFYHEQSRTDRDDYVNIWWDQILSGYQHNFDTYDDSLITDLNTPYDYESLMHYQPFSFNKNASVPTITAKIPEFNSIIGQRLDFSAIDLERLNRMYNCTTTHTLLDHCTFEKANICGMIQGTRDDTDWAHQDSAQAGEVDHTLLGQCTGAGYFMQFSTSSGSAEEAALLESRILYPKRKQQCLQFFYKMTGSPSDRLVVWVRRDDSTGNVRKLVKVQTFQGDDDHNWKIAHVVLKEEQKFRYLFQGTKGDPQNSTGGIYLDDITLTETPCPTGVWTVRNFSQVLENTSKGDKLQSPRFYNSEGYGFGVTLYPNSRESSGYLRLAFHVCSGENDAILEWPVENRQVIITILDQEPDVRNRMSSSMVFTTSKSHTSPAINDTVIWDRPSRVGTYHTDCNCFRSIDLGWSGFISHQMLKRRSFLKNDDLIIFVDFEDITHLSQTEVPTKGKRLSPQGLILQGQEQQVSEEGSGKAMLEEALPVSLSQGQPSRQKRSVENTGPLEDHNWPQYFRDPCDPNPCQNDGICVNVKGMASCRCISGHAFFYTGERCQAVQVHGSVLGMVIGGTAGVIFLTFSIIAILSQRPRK
Experimental: Recombinant human meprin α and meprin β were expressed using the Bac-to-Bac expression system (Gibco Life Technologies, Paisley, UK) as described before. Media and supplements were obtained from Gibco Life Technologies. Recombinant Baculoviruses were amplified in adherently growing Spodoptera frugiperda (Sf)9 insect cells at 27 °C in Grace’s insect medium supplemented with 10% fetal bovine serum, 50 units/mL penicillin, and 50 μg/mL streptomycin. Protein expression was performed in 500 mL suspension cultures of BTI-TN-5B1-4 insect cells growing in Express Five SFM supplemented with 4 mM glutamine, 50 units/mL penicillin, and 50 μg/mL streptomycin in Fernbach-flasks using a Multitron orbital shaker (INFORS AG, Bottmingen, Switzerland). Cells were infected at a density of 2 × 10^6 cells/mL with an amplified viral stock at a MOI of ~10. […] Meprins were activated by trypsin, which was removed afterwards by affinity chromatography using a column containing immobilized chicken ovomucoid, a trypsin inhibitor.
Both assays followed the same general protocol. […] After 30 min incubation at RT, the reactions were started by addition of 5 µL of 2× solutions of substrates (20 µM, meprin α Mca-YVADAPK-K(Dnp), and for meprin β Mca-EDEDED-K(Dnp)).

ADAM17 = target: T2, ADAM17 (Homo sapiens, UniProt P78536); assay: ADAM17 assay
T2 construct: purchased R&D Systems 930-ADB
Experimental: MMP-1, MMP-2, MMP-8, MMP-9, MMP-10, MMP-13, MMP-14, ADAM10, ADAM17 and Mca-KPLGL-Dpa-AR-NH2 fluorogenic peptide substrate were purchased from R&D Systems (cat # 901-MP, 902-MP, 908-MP, 911-MP, 910-MP, 511-MM, 918-MP, 936-AD, 930-ADB, and ES010, respectively). All common chemicals were purchased from Sigma. NFF449 was purchased from Tocris (cat# 1391) and actinonin was from Sigma-Aldrich, St. Louis, MO, USA (cat# 01809).
Both assays followed the same general protocol. 2.5 µL of 2× enzyme solution (20 nM) in assay buffer (10 mM HEPES, 0.001% Brij-35, pH 7.5) were added to solid bottom black 384 plates (Greiner, cat# 789075). Next, test compounds and pharmacological controls were added to corresponding wells using a 384-pin tool device (V&P Scientific, San Diego). After 30 min incubation at RT, the reactions were started by addition of 2.5 µL of 2× solutions of substrate (R&D Systems cat#: ES010, Mca-KPLGL-Dpa-AR-NH2, 20 µM). Reactions were incubated at RT for 2 h, after which the fluorescence was measured using a Perkin Elmer Viewlux multimode microplate imager (λexcitation = 324 nm, λemission = 393 nm). All compounds were tested in 10-point, 1:3 serial dilutions dose-response format starting with highest concentration of 100 µM. IC50 values were determined using non-linear regression analysis using the GraphPad Prism 8.0 suite of programs.

MMP3 = MMP3 (Homo sapiens, UniProt P08254); assay: MMP assay (fluorogenic substrate ES010)
Experimental: All assays followed the same general protocol. 5 µL of 2× enzyme solution (5 nM) in assay buffer (50 mM Tricine, 50 mM NaCl, 10 mM CaCl2, 0.05% Brij-35, pH 7.5) were added to solid-bottom black 384 plates (Nunc, cat# 264705). Next, test compounds and pharmacological controls were added to corresponding wells using a 384-pin tool device (V&P Scientific, San Diego). After 30 min incubation at RT, the reactions were started by addition of 5 µL of 2× solutions of MMP substrate (R&D Systems cat#: ES010, 20 µM). Reactions were incubated at RT for 1 h, after which the fluorescence was measured using the Synergy H4 multimode microplate reader (Biotek Instruments) (λexcitation = 324 nm, λemission = 390 nm). All compounds were tested in 10-point, 1:3 serial dilutions dose-response format starting with highest concentration of 100 µM. IC50 values were determined using non-linear regression analysis using the GraphPad Prism 8.0 suite of programs.

T2 sequence (P78536 215-824): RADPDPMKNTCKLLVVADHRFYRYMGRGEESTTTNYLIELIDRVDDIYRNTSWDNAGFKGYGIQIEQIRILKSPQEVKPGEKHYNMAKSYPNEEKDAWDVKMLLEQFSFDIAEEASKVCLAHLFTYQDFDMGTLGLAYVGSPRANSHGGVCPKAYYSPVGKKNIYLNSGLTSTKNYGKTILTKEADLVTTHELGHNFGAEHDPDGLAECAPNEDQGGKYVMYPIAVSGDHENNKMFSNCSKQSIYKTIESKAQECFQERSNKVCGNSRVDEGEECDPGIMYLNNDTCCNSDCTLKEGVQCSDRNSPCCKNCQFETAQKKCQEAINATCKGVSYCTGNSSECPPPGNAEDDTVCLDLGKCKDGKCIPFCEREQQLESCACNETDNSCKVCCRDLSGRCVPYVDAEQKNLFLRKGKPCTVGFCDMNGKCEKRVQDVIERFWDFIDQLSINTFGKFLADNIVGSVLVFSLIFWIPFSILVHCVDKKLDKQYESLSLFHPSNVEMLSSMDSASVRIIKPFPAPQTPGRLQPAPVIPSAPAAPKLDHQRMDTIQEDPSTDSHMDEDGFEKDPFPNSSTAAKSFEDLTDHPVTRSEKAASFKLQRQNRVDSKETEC
Chain of MMP3 (P08254 100-477, species assumed): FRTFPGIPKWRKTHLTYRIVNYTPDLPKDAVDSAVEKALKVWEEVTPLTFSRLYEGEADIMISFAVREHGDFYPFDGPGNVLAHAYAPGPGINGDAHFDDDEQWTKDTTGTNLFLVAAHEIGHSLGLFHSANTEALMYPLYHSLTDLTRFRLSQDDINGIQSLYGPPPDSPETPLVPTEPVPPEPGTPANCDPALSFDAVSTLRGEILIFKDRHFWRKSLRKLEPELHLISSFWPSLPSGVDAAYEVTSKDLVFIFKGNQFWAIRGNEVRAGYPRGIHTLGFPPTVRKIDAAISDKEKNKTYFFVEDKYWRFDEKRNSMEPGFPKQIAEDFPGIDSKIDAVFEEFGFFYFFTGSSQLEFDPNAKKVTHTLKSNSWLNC

Structure (SMILES) | IC50 (meprin α; triplicate, ± SD) [nM] | IC50 (ADAM17) [nM] | IC50 (MMP3) [nM] | IC50 (meprin α) [nM] | fold more potent than the HTS hit SR19855 in binding meprin α (meprin α) | meprin α/β fold selectivity (ratio of IC50 values) (meprin α; meprin α over meprin β) | extent of meprin α inhibition (in words) (meprin α; scale-up batch, higher doses tested, Figure 4A)
CCCCC[C@H](CC(=O)NO)C(=O)N[C@H](C(=O)N1CCC[C@H]1CO)C(C)C [Actinonin, actinonin, reference compound] | 4 | 200 ± 20 | – | – | – | – | –
COc1cc(OC)nc(SCc2nnc(SCC(=O)NO)n2-c2ccc(N(C)C)cc2)n1 [SR24717] | 660 ± 30 | > 100000 | > 100000 | 490 to 670 | ~ 2 fold | > 100 fold and 106 fold and ~ 106 fold | full meprin α inhibition

From paper PMC7997411, “Discovery and Optimization of Selective Inhibitors of Meprin α (Part II)” (Pharmaceuticals, 2021)
